# From patent US10336697B2, “Spiro[cyclobutane-1,3′-indolin]-2′-one derivatives as bromodomain inhibitors” (Orion Corporation, priority 2015, dated 2019)
# Molecular target: Bet BRD4 full length bromo-domain protein (Homo sapiens, UniProt O60885)
# Test: Bet bromodomain TR-FRET assay (displacement of acetyl histone peptide)
# Format: binding
# Settings: Bet BRD4 full length bromodomain protein, 300 nM acetyl histone peptide substrate, read-out: IC50
row,IC50 [nM],SMILES
1,600 to 1000,"O=C1Nc2c(-c3ccc4cn[nH]c4c3)cc(NS(=O)(=O)c3ccc(F)cc3F)cc2C12CCC2 [Compound 7, N-(7′-(1H-indazol-6-yl)-2′-oxospiro[cyclobutane-1,3′-indolin]-5′-yl)-2,4-difluorobenzenesulfonamide]"
2,< 600,"COc1ccccc1S(=O)(=O)Nc1cc(OCc2cncc(F)c2)c2c(c1)C1(CCC1)C(=O)N2 [Compound 149, N-(7′-((5-fluoropyridin-3-yl)methoxy)-2′-oxospiro[cyclobutane-1,3′-indolin]-5′-yl)-2-methoxybenzenesulfonamide]"
3,600 to 1000,"O=C(Nc1cccnc1)c1cc(NS(=O)(=O)c2ccc(F)cc2F)cc2c1NC(=O)C21CCC1 [Compound 51, 5′-(2,4-Difluorophenylsulfonamido)-2′-oxo-N-(pyridin-3-yl)spiro[cyclobutane-1,3′-indoline]-7′-carboxamide]"
4,< 600,"CCN1CCC(NC(=O)c2cc(NS(=O)(=O)c3ccc(F)cc3F)cc3c2NC(=O)C32CCC2)CC1 [Compound 54, 5′-(2,4-Difluorophenylsulfonamido)-N-(1-ethylpiperidin-4-yl)-2′-oxospiro[cyclobutane-1,3′-indoline]-7′-carboxamide]"
5,< 600,"CN1CCCC(Nc2cc(NS(=O)(=O)c3ccc(F)cc3F)cc3c2NC(=O)C32CCC2)C1 (stereo not drawn) [Compound 16, 2,4-difluoro-N-(7′-((1-methylpiperidin-3-yl)amino)-2′-oxospiro [cyclobutane-1,3′-indolin]-5′-yl)benzenesulfonamide]"
6,< 600,"COc1ccc(S(=O)(=O)Nc2cc(Cc3ccccc3)c3c(c2)C2(CCC2)C(=O)N3)c(F)c1 [Compound 93, N-(7′-benzyl-2′-oxospiro[cyclobutane-1,3′-indolin]-5′-yl)-2-fluoro-4-methoxybenzenesulfonamide]"
7,< 600,"CN1CCC(Oc2cc(NS(=O)(=O)c3ccc(F)cc3Cl)cc3c2NC(=O)C32CCC2)CC1 [Compound 134, 2-Chloro-4-fluoro-N-(7′-((1-methylpiperidin-4-yl)oxy)-2′-oxospiro[cyclobutane-1,3′-indolin]-5′-yl)benzenesulfonamide]"
8,> 1000,"CC(C)(C)OC(=O)N1CCC(Nc2cc(NS(=O)(=O)c3ccc(F)cc3F)cc3c2NC(=O)C32CCC2)C(F)C1 (stereo not drawn) [Compound 37, tert-Butyl 4-((5′-(2,4-difluorophenylsulfonamido)-2′-oxospiro[cyclobutane-1,3′-indolin]-7′-yl)amino)-3-fluoro piperidine-1-carboxylate]"
9,< 600,"COc1ccccc1S(=O)(=O)Nc1cc(C(=O)NC2CCN(C)CC2)c2c(c1)C1(CCC1)C(=O)N2 [Compound 60, 5′-(2-Methoxyphenylsulfonamido)-N-(1-methylpiperidin-4-yl)-2′-oxospiro[cyclobutane-1,3′-indoline]-7′-carboxamide]"
10,< 600,"O=C1Nc2c(OCCn3cccn3)cc(NS(=O)(=O)c3ccc(Cl)cc3F)cc2C12CCC2 [Compound 161, N-(7′-(2-(1H-pyrazol-1-yl)ethoxy)-2′-oxospiro[cyclobutane-1,3′-indolin]-5′-yl)-4-chloro-2-fluorobenzenesulfonamide]"
11,< 600,"COc1ccccc1S(=O)(=O)Nc1cc(OC2CCN(C(C)C)CC2)c2c(c1)C1(CCC1)C(=O)N2 [Compound 136, N-(7′-((1-isopropylpiperidin-4-yl)oxy)-2′-oxospiro[cyclobutane-1,3′-indolin]-5′-yl)-2-methoxybenzenesulfonamide]"
12,600 to 1000,"O=C(NC1CCCNC1)c1cc(NS(=O)(=O)c2ccc(F)cc2F)cc2c1NC(=O)C21CCC1 (single isomer, unassigned) [Compound 67, 5′-(2,4-Difluorophenylsulfonamido)-2′-oxo-N-(piperidin-3-yl)spiro[cyclobutane-1,3′-indoline]-7′-carboxamide]"
13,> 1000,"COC(=O)c1ccc(S(=O)(=O)Nc2cc(C(=O)NC3CCN(C)CC3)c3c(c2)C2(CCC2)C(=O)N3)c(F)c1 [Compound 80, Methyl 3-fluoro-4-(N-(7′-((1-methylpiperidin-4-yl)carbamoyl)-2′-oxospiro[cyclobutane-1,3′-indolin]-5′-yl)sulfamoyl)benzoate]"
14,< 600,"COc1ccccc1NC(=O)Nc1cc(C2CC2)c2c(c1)C1(CCC1)C(=O)N2 [Compound 121, 1-(7′—Cyclopropyl-2′-oxospiro[cyclobutane-1,3′-indolin]-5′-yl)-3-(2-methoxyphenyl)urea]"
15,< 600,"O=C1Nc2c(OCCc3ccccn3)cc(NS(=O)(=O)c3ccc(Cl)cc3F)cc2C12CCC2 [Compound 159, 4-Chloro-2-fluoro-N-(2′-oxo-7′-(2-(pyridin-2-yl)ethoxy)spiro[cyclobutane-1,3′-indolin]-5′-yl)benzenesulfonamide]"
16,< 600,"COc1ccccc1S(=O)(=O)Nc1cc(Oc2cc[nH]c(=O)c2)c2c(c1)C1(CCC1)C(=O)N2 [compound 213, 2-Methoxy-N-(2′-oxo-7′-((2-oxo-1,2-dihydropyridin-4-yl)oxy)spiro[cyclobutane-1,3′-indolin]-5′-yl)benzenesulfonamide]"
17,> 1000,"O=C(Nc1cc(C2CC2)c2c(c1)C1(CCC1)C(=O)N2)c1cccnc1N1CCOCC1 [Compound-223, N-(7′-cyclopropyl-2′oxospiro[cyclobutane-1,3′-indolin]-5′-yl)-2-morpholinonicotinamide]"
18,> 1000,"COc1ccccc1S(=O)(=O)Nc1cc(B(O)O)c2c(c1)C1(CCC1)C(=O)N2 [Compound-217, (5′-((2-Methoxyphenyl)sulfonamido)-2′oxospiro[cyclobutane-1,3′-indolin]-7′-yl)boronic acid]"
19,< 600,"COc1ccc(F)cc1S(=O)(=O)Nc1cc(OC2CCN(C)CC2)c2c(c1)C1(CCC1)C(=O)N2 [Compound 129, 5-Fluoro-2-methoxy-N-(7′-((1-methylpiperidin-4-yl)oxy)-2′-oxospiro[cyclobutane-1,3′-indolin]-5′-yl)benzenesulfonamide]"
20,< 600,"COc1ccccc1S(=O)(=O)Nc1cc(OC(C)c2cccnc2)c2c(c1)C1(CCC1)C(=O)N2 (single isomer, unassigned) [Compound 152, 2-methoxy-N-(2′-oxo-7′-(1-(pyridin-3-yl)ethoxy)spiro[cyclobutane-1,3′-indolin]-5′-yl)benzenesulfonamide]"
21,< 600,"O=C(NC1CCCNC1)c1cc(NS(=O)(=O)c2ccc(F)cc2F)cc2c1NC(=O)C21CCC1 (stereo not drawn) [Compound 65, 5′-(2,4-Difluorophenylsulfonamido)-2′-oxo-N-(piperidin-3-yl)spiro[cyclobutane-1,3′-indoline]-7′-carboxamide]"
22,< 600,"COc1ccc(S(=O)(=O)Nc2cc(C3CCN(C)CC3)c3c(c2)C2(CCC2)C(=O)N3)c(F)c1 [Compound 98, 2-Fluoro-4-methoxy-N-(7′-(1-methylpiperidin-4-yl)-2′-oxospiro-[cyclobutane-1,3′-indolin]-5′-yl)benzenesulfonamide]"
23,< 600,"COc1ccccc1S(=O)(=O)Nc1cc(OCCCN(C)C)c2c(c1)C1(CCC1)C(=O)N2 [Compound 164, N-(7′-(3-(dimethylamino)propoxy)-2′-oxospiro[cyclobutane-1,3′-indolin]-5′-yl)-2-methoxybenzenesulfonamide]"
24,600 to 1000,"CCOc1ccccc1S(=O)(=O)Nc1cc(C(=O)NC2CCN(C)CC2)c2c(c1)C1(CCC1)C(=O)N2 [Compound 84, 5′-(2-Ethoxyphenylsulfonamido)-N-(1-methylpiperidin-4-yl)-2′-oxospiro[cyclobutane-1,3′-indoline]-7′-carboxamide]"
